These results are taken from ChEMBL document CHEMBL6096714, “Advancements in Neurotechnology: Pioneering Brain Monitoring and Stimulation for Enhanced Treatment and Understanding” (ACS Med Chem Lett, 2025).

Calls of active or inactive are those of the source. The calls are words filed in the database; no cut-off is given here.

What all share (assay type): functional, cell-based
The test system of assay [1] is Cortical neurone. As to the kind of experiment: Neuroplasticity effect in female Wistar rat Cortical neuron assessed as increase in neurite number at 10 uM incubated for […].
For assay [2], the system named is Cortical neurone. The assay can be described thus: Neuroplasticity effect in female Wistar rat Cortical neuron assessed as increase in neurite branching at 10 uM incubated for […].
For assay [3], the system named is Cortical neurone. The assay can be described thus: Neuroplasticity effect in female Wistar rat Cortical neuron assessed as increase in neurite length at 10 uM incubated for […].

Regarding `Cn1c2c(c3ccc(OCc4ccccc4)cc31)CCNCC2`, the outcome in the assay with Cortical neurone [1], with Cortical neurone [2] and in the assay on Cortical neurone [3] was inactive.
As for `CN1CCc2[nH]c3cc(Oc4ccccc4)ccc3c2CC1`, the outcome with Cortical neurone [1], with Cortical neurone [2] and with Cortical neurone [3] was Active.
With `CN1CCc2[nH]c3cc(OCc4ccc(F)cc4)ccc3c2CC1`, the outcome in the assay on Cortical neurone [1], in the assay on Cortical neurone [2] and with Cortical neurone [3] was Active.
For the molecule `c1ccc(COc2ccc3c4c([nH]c3c2)CCNCC4)cc1`, the outcome in the assay on Cortical neurone [1], in the assay with Cortical neurone [2] and with Cortical neurone [3] was Active.
Consider `CN1CCc2[nH]c3cc(OCc4ccccc4)ccc3c2CC1`, for which the outcome in the assay on Cortical neurone [1] and in the assay on Cortical neurone [3] was Active. The outcome in the assay with Cortical neurone [2] was inactive.
For `Fc1ccc(Oc2ccc3c4c([nH]c3c2)CCNCC4)cc1`, the outcome in the assay with Cortical neurone [1], in the assay with Cortical neurone [2] and with Cortical neurone [3] was Active.
